# Test results published in patent publication US20260041725A1, “MYCONOSIDE-RICH EXTRACT FROM IN VITRO SYSTEMS OF PLANTS BELONGING TO GENERA HABERLEA AND RAMONDA, METHOD OF PREPARATION, AND USE AS CHEMO-, RADIO- AND UV PROTECTOR” (INNOVA BM Ltd., priority 2022, published 2026).
# Tests used:
# [1] = DPPH radical scavenging activity by direct EPR spectroscopy, with UV protector Oxybenzone (Example 5); conditions: for percentage of trapped DPPH radicals: 0.5% aqueous solution, FIG. 4
# Protocol: The radical scavenging activities (% inhibition) of aqueous solutions (0.5%) of Extract 1, Extract 2 (obtained according to Example 1), Oxybenzone, and 1:1 extract: Oxybenzon combinations (w/w) was evaluated by a DPPH test. A comparative DPPH analysis was carried out and the antioxidant potential of Extract 1, Extract 2, a commercial UV protector (Oxybenzone), as well as combinations of Extract 1 with Oxybenzone and of Extract 2 with Oxybenzone was compared. […] The method of direct EPR spectroscopy was used (Yordanov and Christova, 1997; Karamalakova, 2014). To measure DPPH radical scavenging capacity, 98% ethanolic solution of DPPH (80 mM, stock) was used, room temperature (22° C.), and Extract 1, Extract 2, Oxybenzone and the relevant combinations (at a concentration of 0.5%) were mixed and homogenized. The mixture was incubated in the dark, and examined for DPPH-H/R radicals generated in the system at the 1st, 5th and 10th minute. DPPH solution was used as an internal standard for the EPR signal (FIG. 4).
# [2] = DPPH radical scavenging activity by direct EPR spectroscopy, with radioprotector amifostine (Example 6); conditions: 0.5% aqueous solution, FIG. 5
# From the text: It has been proven that free radicals generated after exposure to gamma radiation are highly reactive and can trigger chain reactions leading to significant biological damage and increased oxidative stress. […] They are substances and compounds of synthetic or natural origin that allow the body's cells to withstand higher levels of radiation or can quickly eliminate the harmful genotoxic effects of such radiation and maintain human genome stability. […] (FIG. 5).
# [3] = DPPH radical scavenging activity before and after 2.0 Gy gamma irradiation (Example 6); conditions: 0.25% aqueous solution, FIG. 6
# Protocol: The effect of combinations of the investigated extracts with the commercial radioprotector amifostine was also studied before and after gamma irradiation (FIG. 6). 2.0 Gy 60Co gamma radiation (y-rays) was performed in a water bath (37° C.) with a Rokus-M irradiator at 24 Gy/min.
# [4] = system: human lymphocyte cultures; assay: Cytokinesis-block micronucleus test, irradiated and non-irradiated blood (Example 7); assay type: cell-based; conditions: non-irradiated blood cells; FIG. 7A
# From the text: The anticlastogenic potential of Extract 1 and Extract 2 (obtained according to Example 1), as well as of the clinically proven cytoprotective agent amifostine, was investigated individually and in combinations on human lymphocyte cultures in vitro before and after exposure to ionizing radiation (gamma rays) by micronucleus scoring tests. […] A compound is considered mutagenic when it increases the spontaneous frequency of the micronuclei (MN) in polychromatic erythrocytes or in lymphocytes. […] The cytokinesis-block micronucleus assay of Fenech, M. and A. Morley (1985) was used to analyze MN in binuclear lymphocytes from peripheral blood. The number of MN found in the examined 500 binuclear cells from cell cultures prepared with irradiated and non-irradiated peripheral venous blood taken from 5 healthy volunteers was investigated. The blood of the donors was exposed to 2.0 Gy 60Co gamma radiation (y-rays) in a water bath (37° C.) with a Rokus-M irradiator at 24 Gy/min. Exposure was calculated depending on the geometrical parameters of the irradiator, the distance and power of the source.
# [5] = system: human lymphocyte cultures; assay: Induced chromosomal aberrations test, before and after gamma irradiation (Example 8); assay type: cell-based; conditions: non-irradiated blood cells; FIG. 8A
# From the text: The clastogenic activity and anticlastogenic potential of Extract 1 and Extract 2 (obtained according to Example 1), as well as of the clinically proven cytoprotective agent amifostine, were investigated alone and in combination on human lymphocyte cultures in vitro before and after exposure to ionizing radiation (y-rays) through tests for detection of induced chromosomal aberrations.
# The study design included a total of 6 groups, including the untreated control. In each group, 5 blood donors were examined, and in each donor 100 metaphase plates obtained from lymphocyte cells from peripheral venous blood were analyzed for chromosomal aberrations, or a total of 500 metaphase plates for each group.
# Cell cultures were prepared using the method of Evans H. J. for short-term culturing of peripheral blood lymphocytes and obtaining metaphase plates for chromosome aberration reading. Chromosome microscope slides were observed on an Olympus BX41 microscope at the most convenient magnifications—screening preparations at magnification 63 and detailed analysis of chromosomes for aberrations at magnification 1000. A minimum of 100 metaphases from each sample were analyzed. […] Exposure was calculated depending on the geometrical parameters of the irradiator, the distance and power of the source.
# [6] = UVA and UVB light transmission (T %) of dilutions of Extract 2 (Example 4); assay type: physicochemical; conditions: FIG. 3
# Protocol: UVA and UVB light transmission (T %) was studied for different dilutions of Extract 2 (obtained according to Example 1 herein) with myconoside concentrations of 0.11 mg/ml, 0.055 mg/ml, 0.011 mg/ml, 0 0.0055 mg/ml, and 0.00275 mg/ml, as presented in FIG. 3.
structure (smiles),measurement,setting,value
COc1ccc(C(=O)c2ccccc2)c(O)c1 [Oxybenzone],percentage of trapped DPPH radicals,[1]; 1st minute,4.7%
same,percentage of trapped DPPH radicals,[1]; 5th minute,3.2%
same,percentage of trapped DPPH radicals,[1]; 10th minute,2.2%
same,antioxidant activity (in words),"[1]; 0.5%, Oxybenzone alone vs 1:1 combinations with extracts, p<0.001",very low antioxidant activity
NCCCNCCSP(=O)(O)O [amifostine],percentage of trapped DPPH radicals,[2]; 1st minute,5.1%
same,percentage of trapped DPPH radicals,[2]; 5th minute,4.5%
same,percentage of trapped DPPH radicals,[2]; 10th minute,3.9%
same,percentage of trapped DPPH radicals,[3]; after 2.0 Gy gamma irradiation,5.9%
same,percentage of trapped DPPH radicals,[3]; before gamma irradiation,2.5%
same,clastogenic activity (number of MN in 500 binuclear cells),[4],lack of clastogenic activity
same,clastogenic activity (frequency of aberrant cells),[5],no clastogenic activity
"O=C(CCc1ccc(O)c(O)c1)O[C@H]1[C@H](O[C@H]2OC[C@](O)(CO)[C@H]2O)[C@@H](O)[C@H](OCCc2ccc(O)c(O)c2)O[C@@H]1CO[C@@H]1OC[C@](O)(CO)[C@H]1O [myconoside, [(2R,3R,4R,5R,6R)-4-[(2R,3R,4R)-3,4-dihydroxy-4-(hydroxymethyl)oxolan-2-yl]oxy-2-[[(2R,3R,4R)-3,4-dihydroxy-4-(hydroxymethyl)oxolan-2-yl]oxymethyl]-6-[2-(3,4-dihydroxyphenyl)ethoxy]-5-hydroxyoxan-3-yl]3-(3,4-dihydroxyphenyl)propanoate]",protection (UV radiation transmission),[6]; maximum concentration of 0.11 mg/ml of myconoside (dilutions of Extract 2 of Example 1),100%
same,inhibition of UV radiation transmission,[6]; minimum concentration of 0.011 mg/ml of myconoside (dilutions of Extract 2 of Example 1),50%
